Data published in patent publication US7312305B2, “Tumor cytotoxicity induced by modulators of the CXCR4 receptor” (Morehouse School of Medicine, priority 2003, dated 2007).

Legend:
[1] = tested on: epithelial tumor cell lines, HUVECs; assay: Apoptotic assay with gp 120 and Nef peptides; format: cell-based, human
Description: The nef protein was expressed and purified in the inventors' laboratory. overlapping 20 mer peptides encompassing the entire nef protein and overlapping 15 mer peptides encompassing the entire gp 120 protein were obtained from the NIH AIDS Research & Reference Reagent Program (McKesson HBC BioServices, MD) Other specific peptides designed from within gp 120 or nef were obtained from SigmaGenosys.
Apoptosis, Terminal Deoxynucleotidyl Transferase dUTP Nick-end Labeling (TUNEL) Assay
Apoptosis generates DNA free ends which can be labeled in situ using terminal deoxynucleotidyl-transferase (TdT), incorporating an exogenously added labeled nucleotide to the DNA strand. This label can then be visualized directly by fluorescence or indirectly using anti-FITC-peroxidase, and a calorimetric assay. Cells on coverslips were washed with PBS, and fixed for 30 minutes at RT with 4% paraformaldehyde, in PBS, pH 7.4. They were then washed with PBS, and permeabilized with 0.1% Triton X-100
for 10 minutes at room temperature (RT). The slides were rinsed twice with PBS, and air dried for 2 minutes. The manufacturer's procedure for TUNEL staining the slides was followed (manufacturer's procedure for the In Situ Cell Death Detection Kit, AP; Boehringer Mannheim, Indianapolis, Ind.). Total cell counts were determined by counterstaining fixed cultures with 20 μg/ml of Hoechst 33258. All specimens were observed by epifluorescence on a computer-controlled microscope system based on a Zeiss Axioskop microscope (Carl Zeiss, Thornwood, N.Y.), and the images were obtained and examined using a charged coupled device (CCD) camera, MagnaFire, model S99806 (Olympus American, Melville, N.Y.). Images were examined using Image-Pro Plus 4.1 for Windows (Media Cybernetics, Silver Springs, Md.) software.
Overlapping peptide sets obtained from the AIDS Reagent Bank were used in the apoptotic assay as disclosed above. Specific pg 120 and Nef peptides within those sets were identified as inducing apoptosis in epithelial tumor cell lines, as well as in HUVECs. Alternatively, these same peptides had no effect in primary mammary epithelium or in MDA-MB-468 tumor lines.

MDA-MB-231, MCF7, DU4475 = assay: Agarose gel electrophoresis/DNA fragmentation, CXCR4 expressing cell lines; format: cell-based, human; conditions: 10 mM (6.35 mg/ml) ceramide
Protocol: Apoptosis Assay: Agarose Gel Electrophoresis/DNA Fragmentation
Untreated or treated cells were collected, and DNA was harvested from normal or cancer cell cultures. Briefly, the cells were washed with PBS, pelleted at 1600 g for 20 minutes at 4° C., and resuspended in 50 mM Tris-HCl, pH 7.5, 20 mM EDTA buffer at about 10^ 7 cells/ml. The cells were then treated 2× with lysis buffer: 1.0% NP-40 (Sigma, St. Louis, Mo.) in the same Tris/EDTA buffer at RT for 2 minutes followed, by centrifugation at 1600 g for 5 minutes. After the last spin, SDS was added to the supernatant to 1% final concentration, RNase A (Sigma, St. Louis, Mo.) was added to 5 mg/mil final concentration, and the solution incubated at 56° C. for 2 hours. Subsequently, protease K (Promega, Madison, Wis.) was added to the solution to 2.5. µg/ml and incubated at 37° C. for 2.5 hr. Ammonium acetate was added to 4 M final concentration, 0.7 volumes of isopropanol was added, the solution was put at −20° C. overnight followed by centrifugation at 14,000 rpm for 30 minutes. The pellets were washed twice with 70% ethanol, dried and resuspended in 10 mM Tris-HCl, pH […]. DNA samples, 18 µg per condition, were prepared in neutral loading buffer to a final concentration of 0.02% bromophenol blue, 5% glycerol, 0.1% SDS, and 50 µg of ethidium bromide, loaded onto a neutral agarose gel (1.7%), and run at50V for 2.5 hours. […]

GRAFYTTKY [Seq. I.D. No. 11]
apoptosis relative to that observed from the full gp 120 protein ([1]; equivalent molar ration (9 mer peptide is 2% of the full protein)): about 60%

NAACAWLEAQ [Seq. I.D. No. 7, 10 mer peptide spanning amino acids 50-60 of the Nef protein]
apoptosis relative to that observed for the full Nef protein ([1]; equivalent molar ration (10 mer peptide is 5% the amount of full protein)): ~100%

GRAFYTT [Seq. I.D. No. 9, motif within the V3 loop of Gp 120, amino acids 315 to 321]
apoptotic/modulator properties of peptide or motif [1]: apoptosis-inducing motif

ALAETCONAWA [Seq. I.D. No. 8, reference compound]
apoptotic/modulator properties of peptide or motif [1]: lost all apoptotic effects

Ceramide
DNA laddering, positive control (MDA-MB-231, MCF7, DU4475): DNA laddering characteristic of apoptotic cells was observed
